{"source": "patent US20090181986A1", "about": "“SUBSTITUTED HETEROCYCLIC COMPOUNDS” (priority 2007, published 2009)", "target": "hERG potassium channel (Homo sapiens, UniProt Q12809)", "sequence (Q12809 whole entry)": "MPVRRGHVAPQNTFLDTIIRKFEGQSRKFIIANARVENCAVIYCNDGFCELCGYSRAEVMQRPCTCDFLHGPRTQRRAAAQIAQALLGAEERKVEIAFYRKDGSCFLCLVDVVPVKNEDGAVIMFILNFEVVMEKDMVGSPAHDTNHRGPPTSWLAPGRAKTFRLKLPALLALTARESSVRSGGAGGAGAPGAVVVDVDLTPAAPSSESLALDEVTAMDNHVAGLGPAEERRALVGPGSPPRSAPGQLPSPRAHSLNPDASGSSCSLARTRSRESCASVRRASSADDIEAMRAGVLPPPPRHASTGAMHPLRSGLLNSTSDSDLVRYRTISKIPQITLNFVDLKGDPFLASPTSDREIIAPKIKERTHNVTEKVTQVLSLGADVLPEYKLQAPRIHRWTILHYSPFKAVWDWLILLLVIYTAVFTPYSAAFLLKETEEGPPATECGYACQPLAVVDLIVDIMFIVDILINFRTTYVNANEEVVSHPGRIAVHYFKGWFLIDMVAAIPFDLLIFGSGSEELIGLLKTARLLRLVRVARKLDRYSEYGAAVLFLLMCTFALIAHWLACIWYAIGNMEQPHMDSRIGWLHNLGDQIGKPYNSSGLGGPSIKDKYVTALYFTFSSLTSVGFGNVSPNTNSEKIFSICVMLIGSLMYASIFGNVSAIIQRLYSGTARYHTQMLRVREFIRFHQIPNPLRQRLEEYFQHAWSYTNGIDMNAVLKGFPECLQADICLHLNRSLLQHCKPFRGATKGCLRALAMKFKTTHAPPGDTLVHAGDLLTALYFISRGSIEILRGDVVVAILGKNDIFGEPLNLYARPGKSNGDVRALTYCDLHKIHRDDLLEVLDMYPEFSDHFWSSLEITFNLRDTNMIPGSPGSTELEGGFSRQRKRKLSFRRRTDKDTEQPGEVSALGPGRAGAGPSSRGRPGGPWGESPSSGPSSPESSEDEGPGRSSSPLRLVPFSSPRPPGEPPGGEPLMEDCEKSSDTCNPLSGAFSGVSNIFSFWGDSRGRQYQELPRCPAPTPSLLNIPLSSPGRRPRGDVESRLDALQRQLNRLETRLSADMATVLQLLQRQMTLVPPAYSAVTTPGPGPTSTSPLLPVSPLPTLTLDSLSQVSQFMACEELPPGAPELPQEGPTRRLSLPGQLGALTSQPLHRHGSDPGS", "test": "hERG screening assay (PatchXpress patch clamp, CHO cells)", "description": "Compounds were screened to test their activity in blocking the hERG potassium channel. The hERG channel is heterologously expressed in a CHO (Chinese Hamster Ovary) cell line. Cells are maintained with standard tissue culture procedures and stable channel expression is maintained with 500 μg/ml G418 in the culture medium. Cells are harvested for testing on the PatchXpress automated patch clamp with Acctumax (Innovative Cell Technologies, San Diego, Calif.) to isolate single cells.\nThe following solutions are used for electrophysiological recordings. The external solution contains: 2 mM CaCl2; 2 mM MgCl2; 4 mM KCl; 150 mM NaCl; 10 mM Glucose; 10 mM HEPES (pH 7.4 with 1M NaOH, osmolarity).\nhERG channels are activated when the voltage is stepped to +20 mV from the −80 mV holding potential (see FIG. 3). During a 5 second step at +20 mV, the channels activate and then largely inactivate, so the currents are relatively small. Upon returning to −50 mV from +20 mV, hERG currents transiently become much larger as inactivation is rapidly removed and then the channel closes. The first step to −50 mV for 300 ms is used as a baseline for measuring the peak amplitude during the step to −50 mV after channel activation. The peak current at −50 mV is measured both under control conditions and after addition of compound.\nAll compounds are prepared as 10 mM DMSO stocks in glass vials. Stock solutions are mixed by vigorous vortexing and sonication for about 2 minutes at room temperature. For testing, compounds are diluted in glass vials using an intermediate dilution step in pure DMSO and then further diluted to working concentrations in external solution. Dilutions are prepared no longer than 20 minutes before use.\nAfter achieving the whole-cell configuration, cells are monitored for 90 seconds to assess stability and washed with external solution for 66 seconds. The voltage protocol described above is then applied to the cells every 12 seconds and throughout the whole procedure. Only cells with stable recording parameters and meeting specified health criteria are allowed to enter the compound addition procedure.\nExternal solution containing 0.1% DMSO (vehicle) is applied to the cells first to establish the control peak current amplitude. After allowing the current to stabilize for 3 to 5 minutes, 1 μM and then 10 μM test compounds are applied. Each compound concentration is added 4 times and cells are kept in test solution until the effect of the compound reaches steady state or for a maximum of 12 minutes. […] Washout in the external solution compartment is performed until the recovery of the current reaches steady state. Data are analyzed using DataXpress, Clampfit (Molecular Devices, Inc., Sunnyvale) and Origin 7 (Originlab Corp.)"}
{"smiles": "CC1=C(C(=O)OCc2ccccc2)C(c2ccccc2-c2ccc(C(=O)O)cc2)C2=C(CCCC2=O)N1", "note": "(centres unmarked) [PT-249, 2′-(3-(benzyloxycarbonyl)-2-methyl-5-oxo-1,4,5,6,7,8-hexahydroquinolin-4-yl)biphenyl-4-carboxylic acid]", "values": [{"measurement": "hERG Patch Clamp hERG % blk (1 μM test cmpd)", "result": 11.5, "unit": "%"}, {"measurement": "hERG Patch Clamp hERG % blk (10 μM test cmpd)", "result": 15.5, "unit": "%"}]}
{"smiles": "CC1=C(C(=O)OCc2ccccc2)C(c2ccccc2N2CCN(C)CC2)n2nnnc2N1", "note": "(centres unmarked) [PT-340, benzyl 5-methyl-7-(2-(4-methylpiperazin-1-yl)phenyl)-4,7-dihydrotetrazolo[1,5-a]pyrimidine-6-carboxylate]", "values": [{"measurement": "hERG Patch Clamp hERG % blk (1 μM test cmpd)", "result": 57, "unit": "%"}, {"measurement": "hERG Patch Clamp hERG % blk (10 μM test cmpd)", "result": 93.5, "unit": "%"}]}
{"smiles": "CCOC(=O)C1=C(C)Nc2nnnn2C1c1ccccc1-n1ccnc1.Cl", "note": "(centres unmarked) [PT-476, ethyl 7-(2-(1H-imidazol-1-yl)phenyl)-5-methyl-4,7-dihydrotetrazolo[1,5-a]pyrimidine-6-carboxylate hydrochloride]", "values": [{"measurement": "hERG Patch Clamp hERG % blk (1 μM test cmpd)", "result": 17.5, "unit": "%"}, {"measurement": "hERG Patch Clamp hERG % blk (10 μM test cmpd)", "result": 23, "unit": "%"}]}
{"smiles": "CC1=C(C(=O)OCc2ccccc2)C(c2ccccc2N2CCCCC2)n2nnnc2N1", "note": "(centres unmarked) [PT-342, benzyl 5-methyl-7-(2-(piperidin-1-yl)phenyl)-4,7-dihydrotetrazolo[1,5-a]pyrimidine-6-carboxylate]", "values": [{"measurement": "hERG Patch Clamp hERG % blk (1 μM test cmpd)", "result": 10, "unit": "%"}, {"measurement": "hERG Patch Clamp hERG % blk (10 μM test cmpd)", "result": 47.5, "unit": "%"}]}
{"smiles": "COc1cc(Cl)ccc1COC(=O)C1=C(C)Nc2nnnn2C1c1c(C)cccc1C", "note": "(centres unmarked) [PT-307, 4-chloro-2-methoxybenzyl 7-(2,6-dimethylphenyl)-5-methyl-4,7-dihydrotetrazolo[1,5-a]pyrimidine-6-carboxylate]", "values": [{"measurement": "hERG Patch Clamp hERG % blk (1 μM test cmpd)", "result": 10, "unit": "%"}, {"measurement": "hERG Patch Clamp hERG % blk (10 μM test cmpd)", "result": 62.5, "unit": "%"}]}
{"smiles": "CC1=C(C(=O)OCc2ccc(Cn3cccn3)cc2)C(c2cccc3ccccc23)n2nnnc2N1", "note": "(centres unmarked) [PT-279, 4-((1H-pyrazol-1-yl)methyl)benzyl 5-methyl-7-(naphthalen-1-yl)-4,7-dihydrotetrazolo[1,5-a]pyrimidine-6-carboxylate]", "values": [{"measurement": "hERG Patch Clamp hERG % blk (1 μM test cmpd)", "result": 12.5, "unit": "%"}, {"measurement": "hERG Patch Clamp hERG % blk (10 μM test cmpd)", "result": 45, "unit": "%"}]}
{"smiles": "CCOC(=O)C1=C(C)Nc2[nH]nc(C)c2C1c1cccc2ccccc12", "note": "(centres unmarked) [PT-074, ethyl 3,6-dimethyl-4-(naphthalen-1-yl)-4,7-dihydro-1H-pyrazolo[3,4-b]pyridine-5-carboxylate]", "values": [{"measurement": "hERG Patch Clamp hERG % blk (1 μM test cmpd)", "result": 14, "unit": "%"}, {"measurement": "hERG Patch Clamp hERG % blk (10 μM test cmpd)", "result": 43, "unit": "%"}]}
{"smiles": "CC1=C(C(=O)OCc2ccccc2)C(c2ccccc2-c2cccc(NS(C)(=O)=O)c2)n2nnnc2N1", "note": "(centres unmarked) [PT-348, benzyl 5-methyl-7-(3′-(methylsulfonamido)biphenyl-2-yl)-4,7-dihydrotetrazolo[1,5-a]pyrimidine-6-carboxylate]", "values": [{"measurement": "hERG Patch Clamp hERG % blk (1 μM test cmpd)", "result": 10, "unit": "%"}, {"measurement": "hERG Patch Clamp hERG % blk (10 μM test cmpd)", "result": 38.5, "unit": "%"}]}
{"smiles": "CC1=C(C(=O)NCc2ccccc2)C(c2ccc3ccccc3c2)n2nnnc2N1", "note": "(centres unmarked) [PT-068, N-benzyl-5-methyl-7-(naphthalen-2-yl)-4,7-dihydrotetrazolo[1,5-a]pyrimidine-6-carboxamide]", "values": [{"measurement": "hERG Patch Clamp hERG % blk (1 μM test cmpd)", "result": 14, "unit": "%"}, {"measurement": "hERG Patch Clamp hERG % blk (10 μM test cmpd)", "result": 22.5, "unit": "%"}]}
{"smiles": "COc1ccc(COC(=O)C2=C(C)Nc3nnnn3C2c2cccc3ccccc23)cc1OC", "note": "(centres unmarked) [PT-061, 3,4-dimethoxybenzyl 5-methyl-7-(naphthalen-1-yl)-4,7-dihydrotetrazolo[1,5-a]pyrimidine-6-carboxylate]", "values": [{"measurement": "hERG Patch Clamp hERG % blk (1 μM test cmpd)", "result": 24, "unit": "%"}, {"measurement": "hERG Patch Clamp hERG % blk (10 μM test cmpd)", "result": 46.5, "unit": "%"}]}
{"smiles": "CC1=C(C(=O)OCc2ccccc2)C(c2ccc3ccccc3c2)c2c(C)n[nH]c2N1", "note": "(centres unmarked) [PT-325, benzyl 3,6-dimethyl-4-(naphthalen-2-yl)-4,7-dihydro-1H-pyrazolo[3,4-b]pyridine-5-carboxylate]", "values": [{"measurement": "hERG Patch Clamp hERG % blk (1 μM test cmpd)", "result": 10, "unit": "%"}, {"measurement": "hERG Patch Clamp hERG % blk (10 μM test cmpd)", "result": 36, "unit": "%"}]}
{"smiles": "CCOC(=O)C1=C(C)Nc2[nH]ncc2C1c1ccccc1Br", "note": "(centres unmarked) [PT-448, ethyl 4-(2-bromophenyl)-6-methyl-4,7-dihydro-1H-pyrazolo[3,4-b]pyridine-5-carboxylate]", "values": [{"measurement": "hERG Patch Clamp hERG % blk (1 μM test cmpd)", "result": 10, "unit": "%"}, {"measurement": "hERG Patch Clamp hERG % blk (10 μM test cmpd)", "result": 57.5, "unit": "%"}]}
{"smiles": "CCOC(=O)C1=C(C)Nc2nnnn2C1c1cccc(Oc2ccccc2)c1", "note": "(centres unmarked) [PT-464, ethyl 5-methyl-7-(3-phenoxyphenyl)-4,7-dihydrotetrazolo[1,5-a]pyrimidine-6-carboxylate]", "values": [{"measurement": "hERG Patch Clamp hERG % blk (1 μM test cmpd)", "result": 11, "unit": "%"}, {"measurement": "hERG Patch Clamp hERG % blk (10 μM test cmpd)", "result": 55, "unit": "%"}]}
{"smiles": "CC1=C(C(=O)OC(C)C)C(c2cccc3ccccc23)n2nnnc2N1", "note": "(centres unmarked) [PT-021, isopropyl 5-methyl-7-(naphthalen-1-yl)-4,7-dihydrotetrazolo[1,5-a]pyrimidine-6-carboxylate]", "values": [{"measurement": "hERG Patch Clamp hERG % blk (1 μM test cmpd)", "result": 13, "unit": "%"}, {"measurement": "hERG Patch Clamp hERG % blk (10 μM test cmpd)", "result": 43.5, "unit": "%"}]}
{"smiles": "CCS(=O)(=O)N1CCN(c2cccc(OC)c2C2C(C(=O)OCc3ccccc3)=C(C)Nc3nnnn32)CC1", "note": "(centres unmarked) [PT-378, benzyl 7-(2-(4-(ethylsulfonyl)piperazin-1-yl)-6-methoxyphenyl)-5-methyl-4,7-dihydrotetrazolo[1,5-a]pyrimidine-6-carboxylate]", "values": [{"measurement": "hERG Patch Clamp hERG % blk (1 μM test cmpd)", "result": 10, "unit": "%"}, {"measurement": "hERG Patch Clamp hERG % blk (10 μM test cmpd)", "result": 41.5, "unit": "%"}]}
{"smiles": "CC1=C(C(=O)OC(C)Cc2ccccc2)C(c2cccc3ccccc23)n2nnnc2N1", "note": "(centres unmarked) [PT-064, 1-phenylpropan-2-yl 5-methyl-7-(naphthalen-1-yl)-4,7-dihydrotetrazolo[1,5-a]pyrimidine-6-carboxylate]", "values": [{"measurement": "hERG Patch Clamp hERG % blk (1 μM test cmpd)", "result": 20.5, "unit": "%"}, {"measurement": "hERG Patch Clamp hERG % blk (10 μM test cmpd)", "result": 37.5, "unit": "%"}]}
{"smiles": "CCOC(=O)C1=C(C)Nc2nnnn2C1c1sc2ccccc2c1C", "note": "(centres unmarked) [PT-018, ethyl 5-methyl-7-(3-methylbenzo[b]thiophen-2-yl)-4,7-dihydrotetrazolo[1,5-a]pyrimidine-6-carboxylate]", "values": [{"measurement": "hERG Patch Clamp hERG % blk (1 μM test cmpd)", "result": 14.5, "unit": "%"}, {"measurement": "hERG Patch Clamp hERG % blk (10 μM test cmpd)", "result": 36.5, "unit": "%"}]}
{"smiles": "COc1cc(Cl)ccc1COC(=O)C1=C(C)NC2=C(C(=O)CCC2)C1c1c(Cl)cccc1Cl", "note": "(centres unmarked) [PT-303, 4-chloro-2-methoxybenzyl 4-(2,6-dichlorophenyl)-2-methyl-5-oxo-1,4,5,6,7,8-hexahydroquinoline-3-carboxylate]", "values": [{"measurement": "hERG Patch Clamp hERG % blk (1 μM test cmpd)", "result": 12, "unit": "%"}, {"measurement": "hERG Patch Clamp hERG % blk (10 μM test cmpd)", "result": 30.5, "unit": "%"}]}
{"smiles": "CC1=C(C(=O)OCc2ccccc2)C(c2c(Br)sc3ccccc23)n2nnnc2N1", "note": "(centres unmarked) [PT-386, benzyl 7-(2-bromobenzo[b]thiophen-3-yl)-5-methyl-4,7-dihydrotetrazolo[1,5-a]pyrimidine-6-carboxylate]", "values": [{"measurement": "hERG Patch Clamp hERG % blk (1 μM test cmpd)", "result": 10, "unit": "%"}, {"measurement": "hERG Patch Clamp hERG % blk (10 μM test cmpd)", "result": 16.5, "unit": "%"}]}
{"smiles": "CC1=C(C(=O)OCc2ccccc2)C(c2sccc2-c2ccc(F)cc2)n2nnnc2N1", "note": "(centres unmarked) [PT-397, benzyl 7-(3-(4-fluorophenyl)thiophen-2-yl)-5-methyl-4,7-dihydrotetrazolo[1,5-a]pyrimidine-6-carboxylate]", "values": [{"measurement": "hERG Patch Clamp hERG % blk (1 μM test cmpd)", "result": 10, "unit": "%"}, {"measurement": "hERG Patch Clamp hERG % blk (10 μM test cmpd)", "result": 25, "unit": "%"}]}
{"smiles": "CCOC(=O)C1=C(C)Nc2[nH]ncc2C1c1ccc(OC)cc1OCc1ccccc1", "note": "(centres unmarked) [PT-445, ethyl 4-(2-(benzyloxy)-4-methoxyphenyl)-6-methyl-4,7-dihydro-1H-pyrazolo[3,4-b]pyridine-5-carboxylate]", "values": [{"measurement": "hERG Patch Clamp hERG % blk (1 μM test cmpd)", "result": 10.5, "unit": "%"}, {"measurement": "hERG Patch Clamp hERG % blk (10 μM test cmpd)", "result": 50, "unit": "%"}]}
{"smiles": "COc1ccc2ccccc2c1C1C(C(=O)OCc2ccccc2)=C(C)Nc2nnnn21", "note": "(centres unmarked) [PT-030, benzyl 7-(2-methoxynaphthalen-1-yl)-5-methyl-4,7-dihydrotetrazolo[1,5-a]pyrimidine-6-carboxylate]", "values": [{"measurement": "hERG Patch Clamp hERG % blk (1 μM test cmpd)", "result": 10.5, "unit": "%"}, {"measurement": "hERG Patch Clamp hERG % blk (10 μM test cmpd)", "result": 34.5, "unit": "%"}]}
